Measured values from article PMC10467532, “Design, synthesis, and biological evaluation of thiazole/thiadiazole carboxamide scaffold-based derivatives as potential c-Met kinase inhibitors for cancer treatment” (Journal of Enzyme Inhibition and Medicinal Chemistry, 2023).

Legend:
HT-29 = assay: MTT antiproliferative assay, HT-29; conditions: Homo sapiens, HT-29, 48 h, read-out: IC50 HT-29
Method: (§1) MTT assay was used to determine the cytotoxic activity of target compounds against different cell lines. […] Then, the cells were treated with five doses of test compounds (pre-dissolved in DMSO), and 0.1% DMSO was used as a negative control. […] The results expressed as IC50 were the average of three determinations calculated by using the Bacus Laboratories Incorporated Slide Scanner (Bliss) software.

HUVEC = assay: MTT cytotoxicity assay, normal HUVEC cells; conditions: Homo sapiens, 48 h, read-out: IC50 HUVEC
Method: as §1

MKN-45 = assay: MTT antiproliferative assay, MKN-45; conditions: Homo sapiens, MKN-45, 48 h, read-out: IC50 MKN-45
Method: as §1

c-Met = biological target: T1, c-Met (Homo sapiens, UniProt P08581); assay: In vitro c-Met enzymatic assay (HTRF); assay type: biochemical; conditions: HTRF assay; mean ± SD, triplicate; read-out: IC50 against c-Met
T1 construct: purchased Invitrogen (Waltham, MA)
Method: Inhibition of target compounds on c-Met kinase activity was measured by using the homogeneous time-resolved fluorescence (HTRF) assay.
The tyrosine kinases inhibitory activities of target compounds were evaluated in 384-well microtiter plates using purified kinases purchased from Invitrogen (Waltham, MA) by homogeneous time-resolved fluorescence (HTRF) assay. The HTRF KinEASE TK kit was performed according to the instructions. After the kinases and test compounds were incubated at 25–30 °C for 5 min, the kinase reactions were initiated by addition of 39 μL of kinase reaction buffer solution and incubated at 25–30 °C for 30 min. The reactions were quenched by addition 10 µL mixed detection solution. […] The inhibition rate (%) was calculated using the following equation: inhibition rate = [(activity of enzyme with tested compound – min)/(max – min)] × 100 (max: the enzyme activity in the presence of enzyme, substrates and cofactors; min: the enzyme activity in the presence of substrates, cofactors and in the absence of enzyme). IC50 value was calculated from the inhibition curve using GraphPad Prism 5.0 software (La Jolla, CA).

A549 = assay: MTT antiproliferative assay, A549; conditions: Homo sapiens, A549, 48 h, read-out: IC50 A549
Method: as §1

MDA-MB-231 = assay: MTT antiproliferative assay, MDA-MB-231; conditions: Homo sapiens, MDA-MB-231, 48 h, read-out: IC50 MDA-MB-231
Method: as §1

FHC = assay: MTT cytotoxicity assay, normal FHC cells; conditions: Homo sapiens, 48 h, read-out: IC50 FHC
Method: as §1

T1 sequence (P08581 25-1390): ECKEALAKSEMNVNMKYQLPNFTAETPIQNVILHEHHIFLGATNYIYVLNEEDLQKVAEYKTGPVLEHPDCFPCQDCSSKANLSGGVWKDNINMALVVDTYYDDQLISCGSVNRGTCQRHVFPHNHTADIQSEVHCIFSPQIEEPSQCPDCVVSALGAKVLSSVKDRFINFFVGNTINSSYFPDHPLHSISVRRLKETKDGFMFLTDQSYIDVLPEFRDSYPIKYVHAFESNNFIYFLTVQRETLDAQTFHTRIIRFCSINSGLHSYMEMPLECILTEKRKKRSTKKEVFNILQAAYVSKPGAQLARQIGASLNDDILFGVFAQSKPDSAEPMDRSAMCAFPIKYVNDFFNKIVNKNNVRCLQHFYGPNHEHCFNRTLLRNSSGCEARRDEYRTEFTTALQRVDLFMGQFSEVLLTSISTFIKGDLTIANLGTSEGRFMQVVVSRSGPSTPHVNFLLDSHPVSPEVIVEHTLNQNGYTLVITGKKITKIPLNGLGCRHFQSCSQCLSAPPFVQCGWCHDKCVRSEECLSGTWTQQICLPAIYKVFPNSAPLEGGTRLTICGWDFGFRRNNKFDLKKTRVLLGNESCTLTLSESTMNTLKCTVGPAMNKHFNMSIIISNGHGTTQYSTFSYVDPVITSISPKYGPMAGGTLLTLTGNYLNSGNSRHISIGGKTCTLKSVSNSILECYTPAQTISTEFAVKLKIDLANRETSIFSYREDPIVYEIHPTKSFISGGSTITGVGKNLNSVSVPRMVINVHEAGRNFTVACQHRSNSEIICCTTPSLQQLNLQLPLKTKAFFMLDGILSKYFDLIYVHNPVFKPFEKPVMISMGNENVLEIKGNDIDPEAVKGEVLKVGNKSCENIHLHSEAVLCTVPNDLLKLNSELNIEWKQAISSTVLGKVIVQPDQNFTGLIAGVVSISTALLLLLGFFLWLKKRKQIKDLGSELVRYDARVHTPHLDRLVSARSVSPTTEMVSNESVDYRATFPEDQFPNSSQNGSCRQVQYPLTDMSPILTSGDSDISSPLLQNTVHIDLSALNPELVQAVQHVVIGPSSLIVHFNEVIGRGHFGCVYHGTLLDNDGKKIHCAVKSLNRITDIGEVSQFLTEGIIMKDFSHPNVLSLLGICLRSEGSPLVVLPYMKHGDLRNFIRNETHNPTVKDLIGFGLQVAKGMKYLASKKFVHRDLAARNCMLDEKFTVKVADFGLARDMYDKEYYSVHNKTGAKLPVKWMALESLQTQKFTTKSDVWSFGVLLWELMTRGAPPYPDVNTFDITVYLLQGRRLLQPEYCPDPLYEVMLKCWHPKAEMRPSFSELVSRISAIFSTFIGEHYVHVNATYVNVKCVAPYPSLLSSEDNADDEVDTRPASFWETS

SMILES | IC50 (HT-29) [µM] | melting point [°C] | IC50 (MKN-45) [µM] | IC50 (c-Met) [µM] | IC50 (A549) [µM] | IC50 (MDA-MB-231) [µM] | IC50 (HUVEC) [µM] | IC50 (FHC) [µM]
COc1cc2nccc(Oc3ccc(NC(=O)c4nc(-c5ccc(F)cc5)cs4)cc3)c2cc1OC [Compound 51f, N-(4-((6,7-Dimethoxyquinolin-4-yl)oxy)phenyl)-4-(4-fluorophenyl)thiazole-2-carboxamide] | 22.4 ± 1.94 | 84 to 86 | 4.95 ± 0.82 | 0.0291 ± 0.00353 | 14.7 ± 3.27 | 31.8 ± 2.56 | 45.5 ± 3.83 | 
COc1cc2nccc(Oc3ccc(NC(=O)c4nc(-c5ccccc5)cs4)c(F)c3)c2cc1OC [Compound 51i, N-(4-((6,7-Dimethoxyquinolin-4-yl)oxy)-2-fluorophenyl)-4-phenylthiazole-2-carboxamide] | 22.9 ± 2.43 | 112 to 114 | 5.35 ± 0.84 | 0.0312 ± 0.00416 | 15.6 ± 1.86 | 35.5 ± 4.62 | 44.3 ± 5.64 | 60.2 ± 5.33
COc1cc2nccc(Oc3ccc(NC(=O)c4nc(-c5ccccc5)cs4)c(Cl)c3)c2cc1OC [Compound 51k, N-(2-Chloro-4-((6,7-dimethoxyquinolin-4-yl)oxy)phenyl)-4-phenylthiazole-2-carboxamide] | 23.4 ± 4.32 | 201 to 203 | 6.87 ± 0.86 | 0.033 ± 0.00266 | 14.5 ± 1.64 | 33.3 ± 4.21 | > 100 | > 100
O=C(Nc1ccc(Oc2ccnc(Cl)c2)c(F)c1)c1nc(-c2cccc(F)c2)cs1 [Compound 51ab, N-(4-((2-Chloropyridin-4-yl)oxy)-3-fluorophenyl)-4-(3-fluorophenyl)thiazole-2-carboxamide] | 6.95 ± 0.82 | 189 to 191 | 1.49 ± 0.63 | 0.0232 ± 0.00216 | 6.02 ± 0.87 | 10.1 ± 1.88 | 12.7 ± 0.83 | 20.2 ± 3.62
COc1cc2nccc(Oc3ccc(NC(=O)c4nc(-c5ccccc5)ns4)cc3)c2cc1OC [Compound 51a, N-(4-((6,7-Dimethoxyquinolin-4-yl)oxy)phenyl)-3-phenyl-1,2,4-thiadiazole-5-carboxamide] | 24.4 ± 1.68 | 145 to 147 | 9.25 ± 0.86 | 0.0566 ± 0.00482 | 26.4 ± 1.24 | > 50 | > 100 | > 100
O=C(Nc1ccc(Oc2ccnc(Cl)c2)c(F)c1)c1nc(-c2ccc(C(F)(F)F)cc2)cs1 [Compound 51ag, N-(4-((2-Chloropyridin-4-yl)oxy)-3-fluorophenyl)-4-(4(trifluoromethyl)phenyl)thiazole-2-carboxamide] | 20.4 ± 3.02 | 212 to 214 | 5.84 ± 1.21 | 0.0394 ± 0.00525 | 12.4 ± 2.85 | 30.6 ± 2.64 | 43.2 ± 3.53 | 

The next lines start with results.

IC50 (HT-29) [µM] | melting point [°C] | IC50 (MKN-45) [µM] | IC50 (c-Met) [µM] | IC50 (A549) [µM] | IC50 (MDA-MB-231) [µM] | SMILES | IC50 (HUVEC) [µM] | IC50 (FHC) [µM]
24.4 ± 2.14 | 136 to 138 | 7.21 ± 0.95 | 0.0456 ± 0.00603 | 17.5 ± 2.25 |  | COc1cc2nccc(Oc3ccc(NC(=O)c4nc(-c5ccccc5)cs4)cc3C)c2cc1OC [Compound 51n, N-(4-((6,7-Dimethoxyquinolin-4-yl)oxy)-3-methylphenyl)-4-phenylthiazole-2-carboxamide] | > 100 | > 100
22.3 ± 1.75 | 209 to 211 | 6.43 ± 0.76 | 0.0398 ± 0.00547 | 14.1 ± 1.87 | 35.2 ± 4.23 | COc1cc2nccc(Oc3ccc(NC(=O)c4nc(-c5ccccc5)cs4)c(C)c3)c2cc1OC [Compound 51m, N-(4-((6,7-Dimethoxyquinolin-4-yl)oxy)-2-methylphenyl)-4-phenylthiazole-2-carboxamide] | 38.8 ± 3.55 | 49.6 ± 5.04
14 ± 2.26 | 191 to 193 | 3.22 ± 0.86 | 0.0367 ± 0.00297 | 9.28 ± 1.85 | 28.5 ± 2.35 | COc1ccc(-c2csc(C(=O)Nc3ccc(Oc4ccnc(Cl)c4)c(F)c3)n2)cc1 [Compound 51y, N-(4-((2-Chloropyridin-4-yl)oxy)-3-fluorophenyl)-4-(4-methoxyphenyl)thiazole-2-carboxamide] | 32.4 ± 1.98 | 
